Laboratory results published in PubChem BioAssay (NCI).
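How tested: cells in 96-well plates exposed to compound for 48 hours at five concentrations. GI50 is the concentration that inhibits growth by half. TGI: concentration producing complete growth inhibition.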

Assays:
Assay in all cases: inhibition of tumour cell growth, NCI panel, 48 h
[1] = tested on: SNB-19 CNS
[2] = tested on: OVCAR-3 ovarian
[3] = tested on: NCI-H226 lung
[4] = tested on: NCI-H23 lung
[5] = tested on: COLO 205 colon
[6] = tested on: SK-MEL-5 melanoma
[7] = tested on: UO-31 renal
[8] = tested on: M14 melanoma
[9] = tested on: UACC-62 melanoma
[10] = tested on: HCC-2998 colon
[11] = tested on: HT29 colon
[12] = tested on: SF-268 CNS
[13] = tested on: MCF7 breast
[14] = tested on: T-47D breast
[15] = tested on: K-562 leukemia
[16] = tested on: NCI/ADR-RES ovarian
[17] = tested on: CAKI-1 renal
[18] = tested on: SW-620 colon
[19] = tested on: HS 578T breast
[20] = tested on: ACHN renal
[21] = tested on: LOX IMVI melanoma
[22] = tested on: HOP-62 NSCLC
[23] = tested on: HOP-92 NSCLC
[24] = tested on: MOLT-4 leukemia
[25] = tested on: RPMI-8226 leukemia
[26] = tested on: SK-MEL-28 melanoma
[27] = tested on: MDA-MB-231 breast
[28] = tested on: NCI-H460 lung
[29] = tested on: SF-539 CNS
[30] = tested on: MDA-MB-435
[31] = tested on: A549 NSCLC
[32] = tested on: BT-549 breast
[33] = tested on: A498 renal
[34] = tested on: SR leukemia
[35] = tested on: 786-0 renal
[36] = tested on: PC-3 prostate
[37] = tested on: SF-295 CNS
[38] = tested on: U251 CNS
[39] = tested on: HL-60(TB) leukemia
[40] = tested on: RXF 393 renal
[41] = tested on: SK-OV-3 ovarian
[42] = tested on: HCT-15 colon
[43] = tested on: OVCAR-5 ovarian
[44] = tested on: OVCAR-4 ovarian
[45] = tested on: SK-MEL-2 melanoma
[46] = tested on: CCRF-CEM leukemia
[47] = tested on: KM12 colon
[48] = tested on: DU-145 prostate
[49] = tested on: NCI-H522 lung
[50] = tested on: HCT-116 colon
[51] = tested on: TK-10 renal
[52] = tested on: EKVX NSCLC
[53] = tested on: SNB-75 CNS
[54] = tested on: OVCAR-8 ovarian
[55] = tested on: SN12C renal
[56] = tested on: UACC-257 melanoma
[57] = tested on: IGROV1 ovarian

COc1ccc2c(CCC(c3ccccc3)c3ccccc3)c3[n+](cc2c1OC)CCc1cc2c(cc1-3)OCO2
GI50 [1]: 0.242 µM
TGI [1]: 1.74 µM
GI50 [2]: 0.028 µM
TGI [2]: 1.3 µM
GI50 [3]: 1.56 µM
TGI [3]: 5.33 µM
GI50 [4]: 0.242 µM
TGI [4]: 1.94 µM
GI50 [5]: 0.0831 µM
TGI [5]: 0.619 µM
GI50 [6]: 0.0383 µM
TGI [6]: 0.214 µM
GI50 [7]: 3.2 µM
TGI [7]: 13.3 µM
GI50 [8]: 0.296 µM
TGI [8]: 1.74 µM
GI50 [9]: 0.153 µM
TGI [9]: 1.76 µM
GI50 [10]: 0.326 µM
TGI [10]: 1.93 µM
GI50 [11]: 0.139 µM
TGI [11]: 1.31 µM
GI50 [12]: 0.519 µM
TGI [12]: 1.98 µM
GI50 [13]: 0.483 µM
TGI [13]: 3.22 µM
GI50 [14]: 0.241 µM
TGI [14]: 1.76 µM
GI50 [15]: 0.327 µM
TGI [15]: 3.01 µM
GI50 [16]: 13.1 µM
TGI [16]: 55.7 µM
GI50 [17]: 3.94 µM
TGI [17]: 16.1 µM
GI50 [18]: 0.315 µM
TGI [18]: 1.63 µM
GI50 [19]: 0.799 µM
TGI [19]: 3.82 µM
GI50 [20]: 1.29 µM
TGI [20]: 5.22 µM
GI50 [21]: 0.255 µM
TGI [21]: 1.36 µM
GI50 [22]: 0.546 µM
TGI [22]: 1.8 µM
GI50 [23]: 0.15 µM
TGI [23]: 0.596 µM
GI50 [24]: 0.381 µM
TGI [24]: 3.04 µM
GI50 [25]: 0.0507 µM
TGI [25]: 1.72 µM
GI50 [26]: 0.462 µM
TGI [26]: 2.06 µM
GI50 [27]: 1.1 µM
TGI [27]: 3.48 µM
GI50 [28]: 0.0123 µM
TGI [28]: 1.03 µM
GI50 [29]: 0.846 µM
TGI [29]: 3.67 µM
GI50 [30]: 0.143 µM
TGI [30]: 1.41 µM
GI50 [31]: 1.55 µM
TGI [31]: 5.07 µM
GI50 [32]: 0.268 µM
TGI [32]: 1.35 µM
GI50 [33]: 1.31 µM
TGI [33]: 6.8 µM
GI50 [34]: 0.373 µM
TGI [34]: 3.24 µM
GI50 [35]: 1.09 µM
TGI [35]: 2.5 µM
GI50 [36]: 0.112 µM
TGI [36]: 0.837 µM
GI50 [37]: 0.732 µM
TGI [37]: 3.99 µM
GI50 [38]: 0.172 µM
TGI [38]: 1.38 µM
GI50 [39]: 0.0822 µM
TGI [39]: 0.526 µM
GI50 [40]: 0.686 µM
TGI [40]: 2.2 µM
GI50 [41]: 0.593 µM
TGI [41]: 1.74 µM
GI50 [42]: 2.28 µM
TGI [42]: 7.43 µM
GI50 [43]: 1.76 µM
TGI [43]: 5.95 µM
GI50 [44]: 0.271 µM
TGI [44]: 1.51 µM
GI50 [45]: 0.0705 µM
TGI [45]: 1.04 µM
GI50 [46]: < 0.0398 µM
TGI [46]: 2.71 µM
GI50 [47]: 0.16 µM
TGI [47]: 1.19 µM
GI50 [48]: 0.348 µM
TGI [48]: 1.8 µM
GI50 [49]: 0.122 µM
TGI [49]: 0.858 µM
GI50 [50]: 0.202 µM
TGI [50]: 1.27 µM
GI50 [51]: 0.339 µM
TGI [51]: 1.58 µM
GI50 [52]: 0.492 µM
TGI [52]: 7.25 µM
GI50 [53]: 0.266 µM
TGI [53]: 1.84 µM

Cc1cccc(NC(=O)c2sc3nc4c(cc3c2N)CCCC4)c1
GI50 [1]: 6.92 µM
TGI [1]: 68 µM
GI50 [2]: 4.84 µM
TGI [2]: > 100 µM
GI50 [3]: 9.68 µM
TGI [3]: 73.5 µM
GI50 [4]: 27.8 µM
TGI [4]: > 100 µM
GI50 [5]: 4.96 µM
TGI [5]: > 100 µM
GI50 [6]: 2.3 µM
TGI [6]: 47.3 µM
GI50 [7]: 25.2 µM
TGI [7]: > 100 µM
GI50 [8]: 2 µM
TGI [8]: > 100 µM
GI50 [54]: 20.9 µM
TGI [54]: > 100 µM
GI50 [9]: 2.19 µM
TGI [9]: > 100 µM
GI50 [10]: 45.4 µM
TGI [10]: > 100 µM
GI50 [12]: 10.7 µM
TGI [12]: > 100 µM
GI50 [13]: 1.15 µM
TGI [13]: > 100 µM
GI50 [14]: 10.2 µM
TGI [14]: > 100 µM
GI50 [16]: 4.59 µM
TGI [16]: > 100 µM
GI50 [17]: 6.7 µM
TGI [17]: > 100 µM
GI50 [18]: 3.42 µM
TGI [18]: > 100 µM
GI50 [19]: 9.92 µM
TGI [19]: > 100 µM
GI50 [20]: 10.5 µM
TGI [20]: > 100 µM
GI50 [21]: 8.52 µM
TGI [21]: > 100 µM
GI50 [22]: 4.97 µM
TGI [22]: 36.8 µM
GI50 [23]: 9 µM
TGI [23]: 32 µM
GI50 [24]: 12 µM
TGI [24]: > 100 µM
GI50 [25]: 5.74 µM
TGI [25]: > 100 µM
GI50 [26]: 9.23 µM
TGI [26]: > 100 µM
GI50 [27]: 14.8 µM
TGI [27]: 52.2 µM
GI50 [28]: 5.25 µM
TGI [28]: > 100 µM
GI50 [29]: 4.74 µM
TGI [29]: 60.5 µM
GI50 [30]: 0.305 µM
TGI [30]: 2 µM
GI50 [31]: 8.33 µM
TGI [31]: > 100 µM
GI50 [32]: 7.56 µM
TGI [32]: 62 µM
GI50 [33]: 5.87 µM
TGI [33]: 66.4 µM
GI50 [34]: 0.549 µM
TGI [34]: 11.2 µM
GI50 [35]: 4.13 µM
TGI [35]: 32.4 µM
GI50 [36]: 16.2 µM
TGI [36]: > 100 µM
GI50 [37]: 3.51 µM
TGI [37]: 23.8 µM
GI50 [55]: 24 µM
TGI [55]: > 100 µM
GI50 [38]: 8.33 µM
TGI [38]: 45.2 µM
GI50 [39]: 2.36 µM
TGI [39]: 17.7 µM
GI50 [56]: > 100 µM
TGI [56]: > 100 µM
GI50 [40]: 4.71 µM
TGI [40]: 23.2 µM
GI50 [41]: 12.9 µM
TGI [41]: 63.9 µM
GI50 [42]: 0.845 µM
TGI [42]: > 100 µM
GI50 [43]: > 100 µM
TGI [43]: > 100 µM
GI50 [44]: 3.22 µM
TGI [44]: 39.1 µM
GI50 [45]: 8.99 µM
TGI [45]: 52.5 µM
GI50 [57]: 17.7 µM
TGI [57]: > 100 µM
GI50 [46]: 4.46 µM
TGI [46]: > 100 µM
GI50 [47]: 3.32 µM
TGI [47]: > 100 µM
GI50 [48]: 13.4 µM
TGI [48]: > 100 µM
GI50 [49]: 16.4 µM
TGI [49]: > 100 µM
GI50 [50]: 2.59 µM
TGI [50]: > 100 µM
GI50 [51]: 13.7 µM
TGI [51]: 90.6 µM
GI50 [53]: 3.84 µM
TGI [53]: 18.9 µM

O=c1nc(Oc2c(F)c(F)c(F)c(F)c2F)ccn1C1OC(CO)C(O)C1O (stereo not drawn)
TGI [1]: > 100 µM
TGI [2]: > 100 µM
TGI [4]: > 100 µM
TGI [5]: > 100 µM
TGI [6]: > 100 µM
TGI [7]: > 100 µM
TGI [8]: > 100 µM
TGI [54]: > 100 µM
TGI [9]: > 100 µM
TGI [10]: > 100 µM
TGI [11]: > 100 µM
TGI [12]: > 100 µM
TGI [13]: > 100 µM
TGI [14]: > 100 µM
TGI [15]: > 100 µM
TGI [16]: > 100 µM
TGI [17]: > 100 µM
TGI [18]: > 100 µM
TGI [19]: > 100 µM
TGI [20]: > 100 µM
TGI [21]: > 100 µM
TGI [22]: > 100 µM
TGI [23]: > 100 µM
TGI [24]: > 100 µM
TGI [25]: > 100 µM
TGI [26]: > 100 µM
TGI [27]: > 100 µM
TGI [29]: > 100 µM
TGI [30]: > 100 µM
TGI [31]: > 100 µM
TGI [32]: > 100 µM
TGI [33]: > 100 µM
TGI [34]: > 100 µM
TGI [35]: > 100 µM
TGI [36]: > 100 µM
TGI [37]: > 100 µM
TGI [55]: > 100 µM
TGI [38]: > 100 µM
TGI [56]: > 100 µM
TGI [40]: > 100 µM
TGI [41]: > 100 µM
TGI [42]: > 100 µM
TGI [43]: > 100 µM
TGI [44]: > 100 µM
TGI [45]: > 100 µM
TGI [57]: > 100 µM
TGI [46]: > 100 µM
TGI [47]: > 100 µM
TGI [48]: > 100 µM
TGI [49]: > 100 µM
TGI [50]: > 100 µM
TGI [51]: > 100 µM
TGI [52]: > 100 µM
TGI [53]: > 100 µM
